# According to patent US20100184802A1, “Bicycloheteroaryl Compounds as P2X7 Modulators and Uses Thereof” (priority 2006, published 2010):
# Tests used:
# [1] = Half-life in human liver microsomes (HLM); type: in vitro ADME; conditions: human liver microsomes (HLM, HL101); human liver microsomes 0.78 mg/mL, 1 μM compound, NADPH, pH 7.4, 37° C.
# Procedure: Test compounds (1 μM) are incubated with 3.3 mM MgCl2 and 0.78 mg/mL HLM (HL101) in 100 mM potassium phosphate buffer (pH 7.4) at 37° C. on the 96-deep well plate. The reaction mixture is split into two groups, a non-P450 and a P450 group. NADPH is only added to the reaction mixture of the P450 group. An aliquot of samples of P450 group is collected at 0, 10, 30, and 60 min time point, where 0 min time point indicated the time when NADPH is added into the reaction mixture of P450 group. […] Collected aliquots are extracted with acetonitrile solution containing an internal standard. […] The compound concentration in supernatant is measured by LC/MS/MS system.
# The half-life value is obtained by plotting the natural logarithm of the peak area ratio of compounds/internal standard versus time. The slope of the line of best fit through the points yields the rate of metabolism (k). This is converted to a half-life value using following equations:
# [2] = target: T1, P2X7 receptor (IL-1β release from THP-1 cells) (Homo sapiens, UniProt Q99572); experiment: IL-1β release assay in differentiated THP-1 cells stimulated with BzATP (Example 9); type: cell-based; conditions: for inhibition at 0.3 µM / inhibition at 0.1 µM: read-out: IL-1β % Inhib. @ 0.3 or 0.1 μM; for IC50: released IL-1β as in Example 9, four parameter logistic fit; for inhibition at 0.1 µM: 0.1 μM concentration
# T1 construct: host or cells: THP-1 cells differentiated with LPS and IFN-γ
# T1 sequence (Q99572 1-595): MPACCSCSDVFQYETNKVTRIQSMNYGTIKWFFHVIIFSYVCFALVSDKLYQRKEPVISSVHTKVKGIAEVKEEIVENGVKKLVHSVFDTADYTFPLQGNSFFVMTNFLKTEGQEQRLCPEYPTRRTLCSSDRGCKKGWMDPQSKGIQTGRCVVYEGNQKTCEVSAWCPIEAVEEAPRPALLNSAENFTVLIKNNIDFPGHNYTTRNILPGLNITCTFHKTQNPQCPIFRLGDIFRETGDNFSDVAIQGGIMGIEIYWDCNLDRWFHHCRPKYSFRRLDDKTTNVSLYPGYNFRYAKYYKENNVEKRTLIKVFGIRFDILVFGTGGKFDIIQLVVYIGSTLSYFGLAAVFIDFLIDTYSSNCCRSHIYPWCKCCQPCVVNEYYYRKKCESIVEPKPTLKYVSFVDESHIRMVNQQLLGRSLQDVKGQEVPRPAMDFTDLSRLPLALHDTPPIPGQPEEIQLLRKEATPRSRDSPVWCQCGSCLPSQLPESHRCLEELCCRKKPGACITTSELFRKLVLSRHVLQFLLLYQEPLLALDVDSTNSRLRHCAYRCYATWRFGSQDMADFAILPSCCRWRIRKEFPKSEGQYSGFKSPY
# Procedure: The cells are then pretreated for 30 minutes with the compound of interest at the appropriate concentration in RPMI media containing 100 IU/mL penicillin, 100 ug/mL streptomycin. […] 30 uL of cell supernatant is then collected and IL-1β levels determined via ELISA (R&D systems Cat. #HSLB50) according to manufacturer's recommendations using the Tecan Safire plate reader. Background adjusted IL-1β levels of drug treated and non-treated cells are used to calculate the percent inhibition.
# The compounds set forth in Table 1 were tested for activity in a cellular model as described herein. […] Measurements were made and IC50 values, presented in Table 2, below, were determined by fitting the data to a four parameter logistic equation using GraphPad Prism software (GraphPad Software, Inc). The equation may be expressed by the following formula:
# Y=Bottom+(Top−Bottom)/(1+10̂((Log EC50−X)*HillSlope))
# Where X is the logarithm of concentration, Y is the response and Y starts at Bottom and goes to Top with a sigmoid shape.
# [3] = 0.3 μM concentration, BzATP 250 uM
half-life at 1 μM [1],"inhibition at 0.3 µM [2, 3]",IC50 [2],inhibition at 0.1 µM ([2]; BzATP 250 uM),SMILES,"IL-1β % Inhib. @ 0.3 or 0.1 μM [2, 3]"
28.8 min,> 76%,1.81 nM,,C[C@H](CO)n1ccc2c(NC(=O)CC34CC5CC(CC(C5)C3)C4)cccc2c1=O [Compound 522],
91.2 min,> 76%,1.3 nM,,O=C(CC12CC3CC(CC(C3)C1)C2)Nc1cccc2c(=O)n(C(CO)Cc3c[nH]cn3)ccc12 (centres unmarked) [Compound 515],
44.4 min,> 76%,7.62 nM,,O=C(CC12CC3CC(CC(C3)C1)C2)Nc1cccc2c1CCN(CC1CCNCC1)C2=O [Compound 512],
26.4 min,> 76%,0.33 nM,,"CC(CO)n1ccc2c(NC(=O)CC34CC5CC(CC(C5)C3)C4)cccc2c1=O (centres unmarked) [Compound 517, 2-Adamantan-1-yl-N-[2-(2-hydroxy-1-methyl-ethyl)-1-oxo-1,2-dihydro-isoquinolin-5-yl]-acetamide]",
,51 to 75%,257 nM,,C[C@@H](C(N)=O)n1ccc2c(NC(=O)CC3(O)CC(C)(C)CC(C)(C)C3)cccc2c1=O [Compound 556],
,> 76%,0.315 nM,,C[C@@H](CO)n1ccc2c(NC(=O)CC34CC5CC(CC(C5)C3)C4)cccc2c1=O [Compound 521],
42.6 min,> 76%,0.11 nM,,CC12CC3CC(C)(C1)CC(CC(=O)Nc1cccc4c(=O)n(C(CO)CO)ccc14)(C3)C2 [Compound 519],
,> 76%,2.38 nM,,"CC(C)[C@H](C(N)=O)n1ccc2c(NC(=O)CC3CCCCCC3)cccc2c1=O [Compound 597, (R)-2-[5-(2-Cycloheptyl-acetylamino)-1-oxo-1H-isoquinolin-2-yl]-3-methyl-butyramide]",
,,,0 to 25%,C[C@H]1CC[C@H](C(=O)Nc2cccc3c(=O)n(CC4(O)CCCCC4)ccc23)CC1 [Compound 539],
,> 76%,0.341 nM,,C[C@@H](CO)N1CCc2c(NC(=O)CC34CC5CC(C)(CC(C)(C5)C3)C4)cccc2C1=O [Compound 535],
,> 76%,11.5 nM,,C[C@H](CO)N1CCc2c(NC(=O)CC34CC5CC(C)(CC(C)(C5)C3)C4)cccc2C1=O [Compound 534],
,,0.202 nM,,CC(C)[C@H](C(N)=O)n1ccc2c(NC(=O)CC34CC5CC(CC(C5)C3)C4)cccc2c1=O [Compound 536],++++ (compound exhibited 76% or greater inhibition at 0.3 μM concentration)
,> 76%,81.3 nM,,CC1(C)CC(C)(C)CC(O)(CC(=O)Nc2cccc3c(=O)n(C(CO)CO)ccc23)C1 [Compound 573],
,51 to 75%,287 nM,,CC1(C)CCCC(O)(CC(=O)Nc2cccc3c(=O)n(CCO)ccc23)C1 (centres unmarked) [Compound 547],
,0 to 25%,> 1000 nM,,CC(C)(C)OC(=O)N1CCC(C(=O)Nc2cccc3c(=O)n(CCO)ccc23)CC1 [Compound 537],
,> 76%,48.2 nM,,C[C@H](C(N)=O)n1ccc2c(NC(=O)CC34CC5CC(CC(O)(C5)C3)C4)cccc2c1=O [Compound 581],
,> 76%,70.8 nM,,C[C@H](C(N)=O)n1ccc2c(NC(=O)[C@H](C)C3CCCCCC3)cccc2c1=O [Compound 608],
,26 to 50%,303 nM,,CC(C)[C@H](C(=O)NC1CC1)n1ccc2c(NC(=O)CC34CC5CC(CC(C5)C3)C4)cccc2c1=O [Compound 594],
,,,26 to 50%,CC(C)(O)Cn1ccc2c(NC(=O)C3C[C@@H]4CC[C@H]3C4)cccc2c1=O (some centres unmarked) [Compound 571],

half-life at 1 μM [1],"inhibition at 0.3 µM [2, 3]",IC50 [2],inhibition at 0.1 µM ([2]; BzATP 250 uM),SMILES,"IL-1β % Inhib. @ 0.3 or 0.1 μM [2, 3]"
,> 76%,0.181 nM,,CC(C)[C@H](C(N)=O)n1ccc2c(NC(=O)CC34CC5CC(CC(C5)C3)C4)cccc2c1=O [Compound 528],
,> 76%,1.38 nM,,"CC(C)C[C@H](CO)n1ccc2c(NC(=O)CC34CC5CC(CC(C5)C3)C4)cccc2c1=O [Compound 585, 2-Adamantan-1-yl-N-[2-((R)-1-hydroxymethyl-3-methyl-butyl)-1-oxo-1,2-dihydro-isoquinolin-5-yl]-acetamide]",
,51 to 75%,266 nM,,O=C(CC1CCCCC1)Nc1cccc2c(=O)n(C(CO)CO)ccc12 [Compound 550],
,> 76%,66.5 nM,,"C[C@@H](CO)n1ccc2c(NC(=O)CC3CCCCCC3)cccc2c1=O [Compound 605, 2-Cycloheptyl-N-[2-((S)-2-hydroxy-1-methyl-ethyl)-1-oxo-1,2-dihydro-isoquinolin-5-yl]-acetamide]",
,,,> 76%,CC1CNC(CN2CCc3c(NC(=O)CC45CC6CC(CC(C6)C4)C5)cccc3C2=O)CN1 (centres unmarked) [Compound 503],
27 min,> 76%,1.34 nM,,O=C(CC12CC3CC(CC(C3)C1)C2)Nc1cccc2c(=O)n(CCO)ccc12 [Compound 511],
,> 76%,1.04 nM,,NC(=O)CCn1ccc2c(NC(=O)CC34CC5CC(CC(C5)C3)C4)cccc2c1=O [Compound 510],
,> 76%,3.23 nM,,C[C@H](CO)n1ccc2c(NC(=O)CC34CC5CC(C)(CC(C)(C5)C3)C4)cccc2c1=O [Compound 525],
,> 76%,0.65 nM,,O=C(CC12CC3CC(CC(C3)C1)C2)Nc1cccc2c(=O)n(C[C@@H]3CCCN3)ccc12 [Compound 505],
,> 76%,6.16 nM,,C[C@H](C(=O)Nc1cccc2c(=O)n([C@H](C)C(N)=O)ccc12)C1CCCCCC1 [Compound 609],
,> 76%,,,O=C(CC1CCCCCC1)Nc1cccc2c(=O)n(C[C@@H]3CCCN3)ccc12 [Compound 577],
,,,26 to 50%,CC(O)Cn1ccc2c(NC(=O)C3C[C@@H]4CC[C@H]3C4)cccc2c1=O (some centres unmarked) [Compound 567],
,> 76%,75.6 nM,,"O=C(CC1CCCCCC1)Nc1cccc2c(=O)n(C(CO)CO)ccc12 [Compound 560, 2-Cycloheptyl-N-[2-(2-hydroxy-1-hydroxymethyl-ethyl)-1-oxo-1,2-dihydro-isoquinolin-5-yl]-acetamide]",
,> 76%,1 nM,,O=C(CC12CC3CC(CC(C3)C1)C2)Nc1cccc2c(=O)n(C[C@H]3CCCN3)ccc12 [Compound 506],
,> 76%,5.59 nM,,CC(C)C[C@H](CO)n1ccc2c(NC(=O)CC3(O)CCCCCC3)cccc2c1=O [Compound 596],
,> 76%,111 nM,,"O=C(CC1(O)CCCCCC1)Nc1cccc2c(=O)n(C[C@H]3CCCN3)ccc12 [Compound 578, 2-(1-Hydroxy-cycloheptyl)-N-(1-oxo-2-(R)-1-pyrrolidin-2-ylmethyl-1,2-dihydro-isoquinolin-5-yl)-acetamide]",
,> 76%,1.36 nM,,NC(=O)C(Cc1c[nH]cn1)n1ccc2c(NC(=O)CC34CC5CC(CC(C5)C3)C4)cccc2c1=O (centres unmarked) [Compound 514],
,> 76%,1.37 nM,,"O=C(CC12CC3CC(CC(C3)C1)C2)Nc1cccc2c1CCN(CCO)C2=O [Compound 549, 2-Adamantan-1-yl-N-[2-(2-hydroxy-ethyl)-1-oxo-1,2,3,4-tetrahydro-isoquinolin-5-yl]-acetamide]",

SMILES,half-life at 1 μM [1],"inhibition at 0.3 µM [2, 3]",IC50 [2],inhibition at 0.1 µM ([2]; BzATP 250 uM),"IL-1β % Inhib. @ 0.3 or 0.1 μM [2, 3]"
"CC(C)C(CO)n1ccc2c(NC(=O)CC34CC5CC(CC(C5)C3)C4)cccc2c1=O (centres unmarked) [Compound 516, 2-Adamantan-1-yl-N-[2-(1-hydroxymethyl-2-methyl-propyl)-1-oxo-1,2-dihydro-isoquinolin-5-yl]-acetamide]",,> 76%,0.049 nM,,
